Biological target: human σ1 receptor (Homo sapiens, UniProt Q99720)
Assay: biochemical
Assay type: binding
Design: μ and σ1 dual (binding to the σ1 receptor and the μ-opioid receptor expressed as Ki): key to the marks not given beside the values

Sequence of human σ1 receptor (Q99720 whole entry): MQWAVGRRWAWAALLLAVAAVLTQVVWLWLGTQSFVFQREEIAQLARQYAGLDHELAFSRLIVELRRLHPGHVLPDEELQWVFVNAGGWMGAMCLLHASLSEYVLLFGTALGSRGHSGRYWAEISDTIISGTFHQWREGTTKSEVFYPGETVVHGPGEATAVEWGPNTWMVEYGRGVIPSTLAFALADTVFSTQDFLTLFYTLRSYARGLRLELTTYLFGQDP

| Compound | Ki [nM] | μ and σ1 dual (binding to the σ1 receptor and the μ-opioid receptor expressed as Ki) |
| --- | --- | --- |
| CCC(=O)N(CC1(N2CC3CN(CC(C)C)CC3C2)CCOCC1)c1cccc(C(F)(F)F)n1 (stereo not shown) [Example 199, N-((4-(5-isobutylhexahydropyrrolo[3,4-c]pyrrol-2(1H)-yl)tetrahydro-2H-pyran-4-yl)methyl)-N-(6-(trifluoromethyl)pyridin-2-yl)propionamide] | > 500 | – |
| CCC(=O)N(CC1(N2CCN(CCO)CC2)CCOCC1)c1cccc(C(F)(F)F)n1 [Example 148, N-((4-(4-(2-hydroxyethyl)piperazin-1-yl)tetrahydro-2H-pyran-4-yl)methyl)-N-(6-(trifluoromethyl)pyridin-2-yl)propionamide] | > 500 | – |
| CCC(=O)N(CC(C)C)CC1(N2CCN(Cc3ccccc3)CC2)CCOCC1 [Example 15, N-((4-(4-benzylpiperazin-1-yl)tetrahydro-2H-pyran-4-yl)methyl)-N-isobutylpropionamide] | – | ++ |
| CC(=O)N(CC1(N2CCN(CC(C)C)CC2)CCOCC1)c1cccc(C(F)(F)F)n1 [Example 40, N-((4-(4-isobutylpiperazin-1-yl)tetrahydro-2H-pyran-4-yl)methyl)-N-(6-(trifluoromethyl)pyridin-2-yl)acetamide] | – | ++ |
| CCC(=O)N(CC1(N2CCN(Cc3ccccc3)CC2)CCOC2(CCCC2)C1)c1cccc(C(F)(F)F)n1 (stereo not shown) [Example 89, N-((9-(4-benzylpiperazin-1-yl)-6-oxaspiro[4.5]decan-9-yl)methyl)-N-(6-(trifluoromethyl)pyridin-2-yl)propionamide] | < 100 | – |
| CCC(=O)N(CC1(N2CCN(Cc3ccncc3)CC2)CCOCC1)c1ccccc1 [Example 106, N-phenyl-N-((4-(4-(pyridin-4-ylmethyl)piperazin-1-yl)tetrahydro-2H-pyran-4-yl)methyl)propionamide] | – | ++ |
| CCC(=O)N(CC1(N2CCN(CCOC(C)C)CC2)CCOC(C)(C)C1)c1cccc(C(F)(F)F)n1 (stereo not shown) [Example 161, N-((4-(4-(2-isopropoxyethyl)piperazin-1-yl)-2,2-dimethyltetrahydro-2H-pyran-4-yl)methyl)-N-(6-(trifluoromethyl)pyridin-2-yl)propionamide] | < 500 | – |
| CCC(=O)N(CC1(N2CCN(CC(C)(C)F)CC2)CCOCC1)c1cccc(C(F)(F)F)n1 [Example 190, N-((4-(4-(2-fluoro-2-methylpropyl)piperazin-1-yl)tetrahydro-2H-pyran-4-yl)methyl)-N-(6-(trifluoromethyl)pyridin-2-yl)propionamide] | < 500 | – |
| CCC(=O)N(CC1(N2CCN(Cc3cccnc3)CC2)CCOCC1)c1ccccc1 [Example 101, N-phenyl-N-((4-(4-(pyridin-3-ylmethyl)piperazin-1-yl)tetrahydro-2H-pyran-4-yl)methyl)propionamide] | < 500 | – |
| CCC(=O)N(CC1(N2CCN(Cc3ccccc3)CC2)CCOCC1)c1ccc(F)cc1 [Example 81, N-((4-(4-benzylpiperazin-1-yl)tetrahydro-2H-pyran-4-yl)methyl)-N-(4-fluorophenyl)propionamide] | < 500 | – |
| CCC(=O)N(CC1(N2CCN(Cc3ccccc3)CC2)CCC1)c1cccc(C(F)(F)F)n1 [Example 197, N-((1-(4-benzylpiperazin-1-yl)cyclobutyl)methyl)-N-(6-(trifluoromethyl)pyridin-2-yl)propionamide] | < 100 | – |
| CCC(=O)N(CC1(N2CCN(Cc3ccccc3)CC2)CC1)c1ccncc1 [Example 31, N-((1-(4-benzylpiperazin-1-yl)cyclopropyl)methyl)-N-(pyridin-4-yl)propionamide] | – | ++ |
| COCC(=O)N(CC1(N2CCN(CC(C)C)CC2)CCOCC1)c1cccc(C(F)(F)F)n1 [Example 39, N-((4-(4-isobutylpiperazin-1-yl)tetrahydro-2H-pyran-4-yl)methyl)-2-methoxy-N-(6-(trifluoromethyl)pyridin-2-yl)acetamide] | – | ++ |
| CCC(=O)N(CC1(N2CCN(Cc3ccccc3)CC2)CCOCC1)c1ncccc1C#N [Example 58, N-((4-(4-benzylpiperazin-1-yl)tetrahydro-2H-pyran-4-yl)methyl)-N-(3-cyanopyridin-2-yl)propionamide] | – | ++ |
| CCC(=O)N(CC1(N2CCN(CCc3ccccc3)CC2)CCCCC1)c1ccccn1 [Example 21, N-((1-(4-phenethylpiperazin-1-yl)cyclohexyl)methyl)-N-(pyridin-2-yl)propionamide] | < 500 | – |
| CCC(=O)N(CC1(N2CCN(Cc3ccccc3)CC2)CCOCC1)c1cccc(C#N)n1 [Example 84, N-((4-(4-benzylpiperazin-1-yl)tetrahydro-2H-pyran-4-yl)methyl)-N-(6-cyanopyridin-2-yl)propionamide] | < 500 | – |
| CCC(=O)N(CC1(N2CCN(CCC(C)C)CC2)CCOCC1)c1ccccn1 [Example 153, N-((4-(4-isopentylpiperazin-1-yl)tetrahydro-2H-pyran-4-yl)methyl)-N-(pyridin-2-yl)propionamide] | – | ++ |
| CCC(=O)N(CC(C)(C)N1CCN(CCc2ncccc2F)CC1)c1ccccc1F [Example 71, N-(2-fluorophenyl)-N-(2-(4-(2-(3-fluoropyridin-2-yl)ethyl)piperazin-1-yl)-2-methylpropyl)propionamide] | – | ++ |
| CCC(=O)N(CC1(N2CCN(Cc3ccccc3)CC2)CC1)c1ccc(C(F)(F)F)cn1 [Example 94, N-((1-(4-benzylpiperazin-1-yl)cyclopropyl)methyl)-N-(5-(trifluoromethyl)pyridin-2-yl)propionamide] | – | ++ |
| CCC(=O)N(CC1(N2CCN(Cc3ccccc3F)CC2)CCOCC1)c1ccccc1 [Example 104, N-((4-(4-(2-fluorobenzyl)piperazin-1-yl)tetrahydro-2H-pyran-4-yl)methyl)-N-phenylpropionamide] | < 500 | – |
| CCC(=O)N(CC1(N2CCN(CC(C)C)CC2)CCOC(C)(C)C1)c1cccc(C(F)(F)F)n1 (stereo not shown) [Example 160, N-((4-(4-isobutylpiperazin-1-yl)-2,2-dimethyltetrahydro-2H-pyran-4-yl)methyl)-N-(6-(trifluoromethyl)pyridin-2-yl)propionamide] | < 500 | – |
| CCC(=O)N(CC1(N2CCN(Cc3ccccc3)CC2)CC1)c1cnccc1C(F)(F)F [Example 78, N-((1-(4-benzylpiperazin-1-yl)cyclopropyl)methyl)-N-(4-(trifluoromethyl)pyridin-3-yl)propionamide] | < 500 | – |
| CCC(=O)N(CC1(N2CCN(CCN3CCOCC3)CC2)CCOCC1)c1cccc(C(F)(F)F)n1 [Example 184, N-((4-(4-(2-morpholinoethyl)piperazin-1-yl)tetrahydro-2H-pyran-4-yl)methyl)-N-(6-(trifluoromethyl)pyridin-2-yl)propionamide] | > 500 | – |
| CCC(=O)N(CC1(N2CCN(Cc3ccccc3)CC2)CC1)c1cccnc1 [Example 36, N-((1-(4-benzylpiperazin-1-yl)cyclopropyl)methyl)-N-(pyridin-3-yl)propionamide] | < 500 | – |
| CCC(=O)N(CC1(N2CCN(Cc3ccc(F)c(F)c3)CC2)CC1)c1ccccc1 [Example 117, N-((1-(4-(3,4-difluorobenzyl)piperazin-1-yl)cyclopropyl)methyl)-N-phenylpropionamide] | < 100 | – |

From patent publication US10428051B2 (priority 2015, dated 2019)
